# Laboratory results taken from PMC12323867 (RSC Medicinal Chemistry, 2025).
# Read-outs that look alike come from different tables or passages of the source.
# Legend:
# [1] = biological target: T1, LSD1-HDAC1-CoREST complex (Homo sapiens, UniProt O60341); test: LSD1 HRP-coupled demethylase assay, SP2509/SP2577 analogues; format: biochemical
# T1 construct: full length native LSD1 (UniProt ID: O60341); made in house; host or cells: HEK 293F cells (co-transfection, pcDNA3 vectors)
# Experimental: The analogues synthesised were then tested for their ability to inhibit LSD1 using purified LSD1-HDAC1-CoREST complex (Fig. 2B). We used an established fluorescent read out horseradish peroxidase (HRP) assay to monitor LSD1 enzymatic activity in the CoREST complex[8] (see ESI ^† for full details).
# (§1) 2. Supplementary Information: Biology
# (§2) 2.1. LSD-HDAC1-CoREST expression and purification
# (§3) Lysis Buffer (Buffer A) Wash Buffer (Buffer B)
# (§4) • 50 mM Tris/Cl pH 7.5 • 50 mM Tris/Cl pH 7.5
# (§5) • 50 mM Potassium Acetate • 50 mM Potassium Acetate […]
# (§6) Cleavage Buffer (Buffer C) Gel Filtration Buffer (Buffer D)
# (§7) • 50 mM Tris/Cl pH 7.5 Filtered at vacuum.
# (§8) • 50 mM Potassium Acetate • 50 mM Tris/Cl pH 7.5
# (§9) • 5 % v/v Glycerol • 50 mM Potassium Acetate
# (§10) • 0.5 mM tris(2- • 0.5 mM TCEP carboxyethyl)phosphine (TCEP)
# (§11) The CoREST ternary complex was comprised of full length native LSD1 (UniProt ID: O60341), full length HDAC1 (UniProt ID: Q13547) and N-terminally truncated RCOR1 (86-485aa) (UniProt ID:
# (§12) Q9UKL0). Protein constructs were cloned into pcDNA3 vector. The RCOR1 constructs contained an N-terminal (His)10(Flag)3 tag followed by a Tev protease cleavage site. The constructs for ternary complex were co-transfected into suspension-grow HEK 293F cells (Thermofisher Scientific) with polyethylenimine (PEI) (Sigma) and harvested after 48 hours. This section of the procedure was carried out as described previously in literature.11,12
# (§13) Cell pellets from 1.2 L culture were defrosted, and buffer A (30 mL) was added. The solution was sonicated (Soniprep 150) in an beaker of ice using a 9 mm probe at 10 ampules; operated with 10 […]
# 2.2. SP2509/SP2577 analogues LSD1 HRP-coupled demethylase assay protocol The commercial reagents for the assay were HRP and Amplex® Ultrared, which are available to purchase from ThermoFisher (31490) and Invitrogen (10737474), respectively. HRP was made up to 8 mg/mL stock solution in 1xPBS buffer, divided into 10 µL aliquots, snap-frozen in liquid nitrogen and stored at -80 °C. Amplex® Ultrared was made up to 10 mM solution in DMSO, divided into 20 µL aliquots and wrapped in foil, away from light and stored at -20 °C. For each assay experiment, CoREST complex was diluted to 500 nM in assay buffer (20 mM HEPES pH 7.5 and 50 mM NaCl).
# HRP was defrosted by diluting each aliquot in 90 µL 1xPBS solution, making a 0.8 mg/mL solution.
# Amplex® Ultrared was made up to 200 µM in assay buffer. HRP and Amplex® Ultrared were pre-mixed before addition to the plate. H3K4Me2 substrate (4 mM in deionised water) was diluted to 300 µM in assay buffer. All stocks were stored on ice during assay preparation.
# The assay was carried out using a ‘black well’ 96 well plate (Corning no. 3915) in a reaction volume of 100 μL. The final concentrations in the assay were as follows: 50 nM CoREST complex, 10 μM Amplex® UltraRed, 0.04 mg/mL HRP and 15 μM H3K4Me2 peptide substrate. The final DMSO concentration in each well was 1.1 %. Three wells of each experiments were designated ‘background controls’ and contained 85 μL assay buffer, premixed Amplex® UltraRed and HRP (10 µL) and H3K4Me peptide substrate (300 μM, 5 µL).
# A stock solution of inhibitor (1 -5 mM in DMSO) was subjected to an inhibitor dilution series, in Eppendorf tubes, in 100 % DMSO. Each new inhibitor stock (4 μL) was diluted in assay buffer (1 in 75) within a new Eppendorf set with assay buffer (20 mM HEPES pH 7.5 and 50 m M NaCl), ensuring the percentage of DMSO was consistent throughout the series. To each well of interest, Inhibitor in assay buffer (75 μL) was added, and CoREST complex (500 nM, 10 µL) was added thereafter. The plate was placed on a rocker and pre -incubated for 30 mins. To each well, premixed Amplex® UltraRed and HRP (10 µL) was added before H3K4Me 2 peptide substrate in assay buffer solution (300 μM, 5 µL) was added to the wall of the plate. The plate was covered in foil and spun down for one minute before being placed in the plate reader. The final percentage concentration of DMSO in […]
# [2] = test system: H3K4me2 in HCT116 cells; test: Histone methylation H3K4me2 by western blot; format: cell-based, human; details: HCT116, 0.1–10 μM, 24 hours, H3K4me2 antibody
# Experimental: We next screened 25–33 and SP2509 over a concentration range of 0.1–10 μM in HCT116 cells (obtained from ATCC, CCL-247) and determined LSD1 abundance after 24 hours with an antibody for LSD1 (Fig. S4 ^†). […] Using the same conditions, we also determined the effects of SP2509, 25, 27, 28, 30 and 31 on histone H3 lysine 4 dimethyl (H3K4me2) a validated substrate for LSD1 using a specific antibody for H3K4me2 (Fig. S4 ^†).
# Compounds 39–41, 49, 52 and 54 were screened for LSD1 degradation in HCT116 cells using a specific antibody for LSD1. This was performed side-by-side with TCP. Compounds were tested at concentration ranges of 0.2–20 μM and LSD1 abundance was quantified at 24 hours (Fig. S5 ^†). 49, 52 and 54 were also evaluated at 48 and 72 hours. […] We also determined the effects of these compounds on the histone methyl marker H3K4me2 (Fig. S5 and S6 ^†).
# 2.5 Protocols for LSD1 degradation and histone methylation in HCT116 cells HCT116 human colon carcinoma cells were grown in Dulbecco’s Modified Eagle Medium (DMEM) supplemented with Fetal Bovine Serum (FBS, 10% final concentration) and 1x glutamine/penicillin/streptomycin. Cells were incubated at 37 °C and 5% CO2. Cells were treated with compounds (0.1-20 µM) with a final DMSO volume of 0.04%. DMSO (0.04%) treated and untreated (WT) cells were included as controls.
# HCT116 cells were seeded into six well plates (400000 cells per well) and after requisite compound treatment time (24h, 48h, 72h) cells were harvested and either snap-frozen in liquid nitrogen or lysed in lysis buffer (50mM Tris-HCl, 150 mM NaCl, 0.5% NP-40, 0.5% Triton X-100 + protease inhibitor) on ice for 30 mins. This was centrifuged (15000 rpm, 4 °C, 15 mins) and the supernatant collected.
# H2SO4 (0.4 M, equal volume) was added to the pellets for histone extraction and the tubes incubated overnight at 4 °C. Following this, the histone extract was centrifuged (15000 rpm, 4 °C, 15 mins) and the supernatant collected. Protein concentrations of whole cell extract were quantified via Bradford Assay using BIO-RAD Protein Assay Dye Reagent Concentrate.
# Western blots were run on NuPAGE 4-12% Bis-Tris gels, with 30 µg of protein (whole cell extract) or an equivalent volume of histone extract loaded per lane, with all extracts dyed with 4x NuPAGE LDS Sample Buffer. PageRuler Plus Prestained Ladder was used as a reference. Gel electrophoresis was carried out at 140 V for 60-90 mins, following which the proteins were transferred onto nitrocellulose membrane at 30 V for 60 mins. Membranes were blocked in LI-COR Intercept Blocking Buffer overnight at RT on a roller, following which the membrane was probed with primary antibodies for 1 h at RT. The membrane was washed with PBS + 0.1% Tween (3 x 10 mins), then incubated with secondary antibodies for 50 mins at RT. The membrane was washed again (PBS Tween 2 x 10 mins, PBS 1 x 10 mins) following which the blot was visualised with the Odyssey Infrared Imaging System. Image processing and quantification was performed with ImageStudio Lite. […]
# a-tubulin (mouse) – Sigma, t5168 (1:10000 dilution)
# [3] = biological target: T2, HDAC1-CoREST-LSD1 complex (Homo sapiens, UniProt O60341); test: LSD1 HRP-coupled demethylase assay, TCP analogues; format: biochemical; details: for LSD1 inhibition at 50 μM: single concentration 50 μM, compared to no compound treatment control
# T2 construct: full length native LSD1 (UniProt ID: O60341); made in house; host or cells: HEK 293F cells (co-transfection, pcDNA3 vectors)
# Experimental: We then evaluated LSD1 inhibition in the LSD1-HDAC1-CoREST complex using the established horseradish peroxidase (HRP) assay.[8]
# as §1, §2, §3, §4, §5, §6, §7, §8, §9, §10, §11, §12, §13
# Components and concentrations for the HRP-coupled demethylase assay […]
# The assay components are shown at their final concentrations per well in the table above. CoREST complex (HDAC 1/RCOR1/LSD1) was added to the assay buffer alongside either DMSO or the relevant inhibitor at the desired concentration on black-walled 96 well plates. Alongside this was another control, with DMSO but no CoREST or inhibitor. Plates were spun to 3000 rpm between each addition of a reagent. Plates were incubated at 20 °C for 30 mins, following which HRP/Amplex Ultrared (1:1 mixture) and peptide was added. Plates were spun, then read on an PerkinElmer 2030 Explorer plate reader, with excitation of 530 nm and […] of 590 nm, with 7 readings taken over […]
# Components, where bought in, are listed below:
# HRP – Pierce™ Horseradish Peroxidase, Invitrogen
# H3K4me2 peptide – Histone H3 dimethyl lysine-4 peptide, Enzo Life Sciences Amplex UltraRed, ThermoFisher Scientific
# To the assay buffer was added HRP/AMP in each well to concentrations equal to those in above, following which hydrogen peroxide solution (diluted from 3% hydrogen peroxide solution into a 20 mM stock) was added, in a 1 in 3 dilution series with final concentrations starting from 3 mM.
# Negative control wells contained either 100% buffer or as above with no hydrogen peroxide solution.
# [4] = LSD1 enzymatic activity, complex 50 nM, HRP assay, SP2509 value is mean of three sets, read-out: LSD1-HDAC1-CoREST IC50
# [5] = per parallel set, each set with SP2509 as reference standard, read-out: IC50 from dose response curves (Figure S1)
smiles,measurement,setting,value
C/C(=N\NC(=O)c1cccc(S(=O)(=O)N2CCNCC2)c1)c1cc(Cl)ccc1O [compound 14],IC50,[1]; [4],20.6 nM
same,IC50,[1]; [5],21 nM
C/C(=N\NC(=O)c1cccc(S(=O)(=O)N2CCOCC2)c1)c1cc(OCCCC(=O)N[C@H](C(=O)N2C[C@H](O)C[C@H]2C(=O)NCc2ccc(-c3scnc3C)cc2)C(C)(C)C)ccc1O [compound 27],H3K4me2 abundance,[2],no increase in H3K4me2
C/C(=N\NC(=O)c1cccc(S(=O)(=O)N2CCOCC2)c1)c1cc(OCCOCCC(=O)N[C@H](C(=O)N2C[C@H](O)C[C@H]2C(=O)NCc2ccc(-c3scnc3C)cc2)C(C)(C)C)ccc1O [compound 25],H3K4me2 abundance,[2],no increase in H3K4me2
C/C(=N\NC(=O)c1cccc(S(=O)(=O)N2CCOCC2)c1)c1cc(OCCOCCC(=O)NCCNc2cccc3c2C(=O)N(C2CCC(=O)NC2=O)C3=O)ccc1O (centres unmarked) [compound 30],H3K4me2 abundance,[2],no increase in H3K4me2
C/C(=N\NC(=O)c1cccc(S(=O)(=O)N2CCOCC2)c1)c1cc(OCCOCCC(=O)OC(C)(C)C)ccc1O [compound 13],IC50,[1]; [4],159 nM
COc1ccc(O)c(C=NNC(=O)c2cccc(S(=O)(=O)N3CCOCC3)c2)c1 [compound 9],IC50,[1]; [4],12.8 nM
same,IC50,[1]; [5],13 nM
O=C(CCCCCCCCCCC(=O)NC1CC1c1ccccc1)NCCNc1cccc2c1C(=O)N(C1CCC(=O)NC1=O)C2=O (centres unmarked) [compound 41],LSD1 inhibition at 50 μM,[3]; complex 50 nM,not LSD1 inhibitors
O=C(CCCCC(=O)NC1CC1c1ccccc1)NCCNc1cccc2c1C(=O)N(C1CCC(=O)NC1=O)C2=O (centres unmarked) [compound 40],LSD1 inhibition at 50 μM,[3]; complex 50 nM,not LSD1 inhibitors
CC(=NNC(=O)c1cccc(S(=O)(=O)N2CCN(C(=O)OC(C)(C)C)CC2)c1)c1cc(Cl)ccc1O [compound 11],IC50,"[1]; LSD1 enzymatic activity, complex 50 nM, HRP assay, read-out: LSD1-HDAC1-CoREST IC50",> 20000 nM
COc1ccc(C(C)=NNC(=O)c2cccc(S(=O)(=O)N3CCOCC3)c2)c(O)c1 [compound 10],IC50,[1]; [4],12.4 nM
same,IC50,[1]; [5],12 nM
COC(=O)c1ccc([C@@H]2C[C@H]2N)cc1 [compound 55],IC50,"[3]; complex 50 nM, mean ± SD from three replicates",94 nM
same,enhancement in LSD1 inhibition compared to TCP,[3]; ratio of IC50 values,approximately 100 fold
C/C(=N\NC(=O)c1cccc(S(=O)(=O)N2CCOCC2)c1)c1cc(OCCOCCOCCC(=O)NCCNc2cccc3c2C(=O)N(C2CCC(=O)NC2=O)C3=O)ccc1O (centres unmarked) [compound 31],H3K4me2 abundance,[2],no increase in H3K4me2
COc1ccc(O)c(C(C)=NNC(=O)c2cccc(S(=O)(=O)N3CCOCC3)c2)c1 [compound 8],IC50,[1]; [4],14.5 nM
same,IC50,[1]; [5],15 nM
C/C(=N\NC(=O)c1cccc(S(=O)(=O)N2CCN(CCOCCC(=O)OC(C)(C)C)CC2)c1)c1cc(Cl)ccc1O [compound 15],IC50,[1]; [4],108 nM
C/C(=N\NC(=O)c1cccc(S(=O)(=O)N2CCOCC2)c1)c1ccc(OCCOCCC(=O)OC(C)(C)C)cc1O [compound 12],IC50,[1]; [4],113 nM
C/C(=N\NC(=O)c1cccc(S(=O)(=O)N2CCOCC2)c1)c1cc(OCCCCCCCC(=O)N[C@H](C(=O)N2C[C@H](O)C[C@H]2C(=O)NCc2ccc(-c3scnc3C)cc2)C(C)(C)C)ccc1O [compound 28],H3K4me2 abundance,[2],no increase in H3K4me2
Cc1ncsc1-c1ccc(CNC(=O)[C@@H]2C[C@@H](O)CN2C(=O)[C@@H](NC(=O)CCCCC(=O)NC2CC2c2ccccc2)C(C)(C)C)cc1 (some centres unmarked) [compound 38],LSD1 inhibition at 50 μM,[3]; complex 50 nM,modest inhibition
Cc1ncsc1-c1ccc(CNC(=O)[C@@H]2C[C@@H](O)CN2C(=O)[C@@H](NC(=O)CCCCCCCCCCC(=O)NC2CC2c2ccccc2)C(C)(C)C)cc1 (some centres unmarked) [compound 39],LSD1 inhibition at 50 μM,[3]; complex 50 nM,not LSD1 inhibitors
